# Patent US9346815B2, “5-chloro-2-difluoromethoxyphenyl pyrazolopyrimidine compounds, compositions and methods of use thereof” (Genentech, Inc., priority 2014, dated 2016)
# Counter-ions that a name gives are not always drawn. Like-named read-outs stand apart in the source and are kept apart here.
# Tests used:
# [1] = target: isolated recombinant JAK2 kinase domain (Homo sapiens (Human), UniProt O60674); assay: JAK2 enzyme assay (Caliper LabChip, peptide phosphorylation); type: biochemical; conditions: 25 μM ATP
# Sequence of isolated recombinant JAK2 kinase domain (O60674 849-1124): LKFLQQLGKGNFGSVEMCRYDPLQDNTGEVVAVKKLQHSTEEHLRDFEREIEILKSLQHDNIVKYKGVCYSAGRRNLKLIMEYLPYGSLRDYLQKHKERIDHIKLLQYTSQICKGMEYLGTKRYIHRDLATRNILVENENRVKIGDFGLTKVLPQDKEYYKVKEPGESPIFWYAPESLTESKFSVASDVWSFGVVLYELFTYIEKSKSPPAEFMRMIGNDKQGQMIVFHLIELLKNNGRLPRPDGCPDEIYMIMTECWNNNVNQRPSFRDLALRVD
# [2] = system: JAK1-dependent STAT6 phosphorylation downstream of IL-13 stimulation in BEAS-2B human bronchial epithelial cells; assay: JAK1 pathway assay in BEAS-2B cells (IL-13-pSTAT6, MSD); type: cell-based; conditions: read-out: IL13-pSTAT6 EC50 (uM)_BEAS-2B
# Experimental: JAK1 Pathway Assay in Cell Lines was Carried Out as Follows:
# Inhibitor potency (EC50) was determined in cell-based assays designed to measure JAK1 dependent STAT phosphorylation.
# In one assay approach, TF-1 human erythroleukemia cells obtained from the American Type Culture Collection (ATCC; Manassas, Va.) were used to measure JAK1-dependent STAT6 phosphorylation downstream of IL-13 stimulation. Prior to use in the assays, TF-1 cells were starved of GM-CSF overnight in OptiMEM medium (Life Technologies, Grand Island, N.Y.) supplemented with 0.5% charcoal/dextran stripped fetal bovine serum (FBS), 0.1 mM non-essential amino acids (NEAA), and 1 mM sodium pyruvate. The assays were run in 384-well plates in serum-free OptiMEM medium using 300,000 cells per well. In a second assay approach, BEAS-2B human bronchial epithelial cells obtained from ATCC were plated at 100,000 cells per well of a 96-well plate one day prior to the experiment. The BEAS-2B assay was run in complete growth medium (bronchial epithelial basal medium plus bulletkit; Lonza; Basel, Switzerland).
# Test compounds were serially diluted 1:2 in DMSO and then diluted 1:50 in medium just before use. Diluted compounds were added to the cells, for a final DMSO concentration of 0.2%, and incubated for 30 min (for the TF-1 assay) or 1 hr (for the BEAS-2B assay) at 37° C. Then, cells were stimulated with human recombinant cytokine at their respective EC90 concentrations, as previously determined for each individual lot. Cells were stimulated with IL-13 (R&D Systems, Minneapolis, Minn.) for 15 min at 37° C. The TF-1 cell reactions were stopped by the direct addition of 10× lysis buffer (Cell Signaling Technologies, Danvers, Mass.), whereas the BEAS-2B cell incubations were halted by the removal of medium and addition of 1× lysis buffer. The resultant samples were frozen in the plates at −80° C. Compound mediated inhibition of STAT6 phosphorylation was measured in the cell lysates using MesoScale Discovery (MSD) technology (Gaithersburg, Md.).
# [3] = target: isolated recombinant JAK1 kinase domain (Homo sapiens (Human), UniProt P23458); assay: JAK1 enzyme assay (Caliper LabChip, peptide phosphorylation); type: biochemical
# Sequence of isolated recombinant JAK1 kinase domain (P23458 875-1153): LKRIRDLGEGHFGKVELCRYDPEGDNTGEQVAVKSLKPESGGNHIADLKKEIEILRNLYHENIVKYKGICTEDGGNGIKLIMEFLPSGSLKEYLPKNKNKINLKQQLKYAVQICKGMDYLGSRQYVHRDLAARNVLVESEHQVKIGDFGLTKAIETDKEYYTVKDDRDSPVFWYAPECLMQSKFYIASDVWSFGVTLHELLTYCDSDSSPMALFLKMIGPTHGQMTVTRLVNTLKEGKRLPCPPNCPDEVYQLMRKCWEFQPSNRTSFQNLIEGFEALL
# [4] = isolated recombinant JAK1 kinase domain, 25 μM ATP
smiles,measurement,setting,value
"O=C(Nc1cn(CC(=O)N2CCC(N3C[C@@H]4C[C@H]3CO4)CC2)nc1-c1cc(Cl)ccc1OC(F)F)c1cnn2cccnc12 [Example 447, N-(1-(2-(4-((1S,4S)-5-oxa-2-aza-bicyclo[2.2.1]heptan-2-yl)piperidin-1-yl)-2-oxoethyl)-3-(5-chloro-2-(difluoromethoxy)phenyl)-1H-pyrazol-4-yl)pyrazolo[1,5-a]pyrimidine-3-carboxamide]",Ki,[1],1.25 nM
same,EC50,[2],0.0161 µM
same,Ki,[3]; [4],0.49 nM
"CC1(N2CCOCC2)CCN(C(=O)Cn2cc(NC(=O)c3cnn4cccnc34)c(-c3cc(Cl)ccc3OC(F)F)n2)CC1 [Example 410, N-(3-(5-chloro-2-(difluoromethoxy)phenyl)-1-(2-(4-methyl-4-morpholinopiperidin-1-yl)-2-oxoethyl)-1H-pyrazol-4-yl)pyrazolo[1,5-a]pyrimidine-3-carboxamide]",Ki,[1],1.25 nM
same,EC50,[2],0.0183 µM
same,Ki,[3]; [4],0.6 nM
"O=C1CN(C2CCN(C(=O)Cn3cc(NC(=O)c4cnn5cccnc45)c(-c4cc(Cl)ccc4OC(F)F)n3)CC2)CCN1 [Example 407, N-(3-(5-chloro-2-(difluoromethoxy)phenyl)-1-(2-oxo-2-(4-(3-oxopiperazin-1-yl)piperidin-1-yl)ethyl)-1H-pyrazol-4-yl)pyrazolo[1,5-a]pyrimidine-3-carboxamide]",Ki,[1],0.71 nM
same,EC50,[2],0.172 µM
same,Ki,[3]; [4],0.36 nM
"CN1CCC(COC(=O)C2CCN(C(=O)Cn3cc(NC(=O)c4cnn5cccnc45)c(-c4cc(Cl)ccc4OC(F)F)n3)CC2)CC1 [Example 388, (1-methylpiperidin-4-yl)methyl 1-(2-[3-[5-chloro-2-(difluoromethoxy)phenyl]-4-[pyrazolo[1,5-a]pyrimidine-3-amido]-1H-pyrazol-1-yl]acetyl)piperidine-4-carboxylate]",Ki,[1],2.42 nM
same,EC50,[2],0.0241 µM
same,Ki,[3]; [4],0.51 nM
"O=C(Nc1cn([C@H]2CCNC[C@@H]2O)nc1-c1cc(Cl)ccc1OC(F)F)c1cnn2cccnc12 [Example 359, N-[3-[5-chloro-2-(difluoromethoxy)phenyl]-1-[(3S,4S)-3-hydroxypiperidin-4-yl]-1H-pyrazol-4-yl]pyrazolo[1,5-a]pyrimidine-3-carboxamide]",Ki,[1],2.7 nM
same,EC50,[2],0.0309 µM
same,Ki,[3]; [4],3.85 nM
"CN(CC1OCCO1)C1CCN(C(=O)Cn2cc(NC(=O)c3cnn4cccnc34)c(-c3cc(Cl)ccc3OC(F)F)n2)CC1 [Example 433, N-(1-(2-(4-(((1,3-dioxolan-2-yl)methyl)(methyl)amino)piperidin-1-yl)-2-oxoethyl)-3-(5-chloro-2-(difluoromethoxy)phenyl)-1H-pyrazol-4-yl)pyrazolo[1,5-a]pyrimidine-3-carboxamide]",Ki,[1],1.16 nM
same,EC50,[2],0.036 µM
same,Ki,[3]; [4],0.42 nM
"CSc1ccc(CNCCn2cc(NC(=O)c3cnn4cccnc34)c(-c3cc(Cl)ccc3OC(F)F)n2)cc1 [Example 346, N-[3-[5-chloro-2-(difluoromethoxy)phenyl]-1-[2-([[4-(methylsulfanyl)phenyl]methyl]amino)ethyl]-1H-pyrazol-4-yl]pyrazolo[1,5-a]pyrimidine-3-carboxamide formate]",Ki,[1],0.31 nM
same,EC50,[2],0.115 µM
same,Ki,[3]; [4],0.37 nM
"O=C(Nc1cn(CC(=O)N2CCC(N3CC4CC(C3)O4)CC2)nc1-c1cc(Cl)ccc1OC(F)F)c1cnn2cccnc12 [Example 450, N-(1-(2-(4-(6-oxa-3-aza-bicyclo[3.1.1]heptan-3-yl)piperidin-1-yl)-2-oxoethyl)-3-(5-chloro-2-(difluoromethoxy)phenyl)-1H-pyrazol-4-yl)pyrazolo[1,5-a]pyrimidine-3-carboxamide]",Ki,[1],0.97 nM
same,EC50,[2],0.0126 µM
same,Ki,[3]; [4],0.37 nM
"CN(C)CCN1CCN(C(=O)Cn2cc(NC(=O)c3cnn4cccnc34)c(-c3cc(Cl)ccc3OC(F)F)n2)CC1 [Example 379, N-[3-[5-chloro-2-(difluoromethoxy)phenyl]-1-(2-[4-[2-(dimethylamino)ethyl]piperazin-1-yl]-2-oxoethyl)-1H-pyrazol-4-yl]pyrazolo[1,5-a]pyrimidine-3-carboxamide]",Ki,[1],2.33 nM
same,EC50,[2],0.0755 µM
same,Ki,[3]; [4],0.86 nM
"CN(C)C(=O)CN1CCC(CN2CCN(C(=O)Cn3cc(NC(=O)c4cnn5cccnc45)c(-c4cc(Cl)ccc4OC(F)F)n3)CC2)CC1 [Example 428, N-(3-(5-chloro-2-(difluoromethoxy)phenyl)-1-(2-(4-((1-(2-(dimethylamino)-2-oxoethyl)piperidin-4-yl)methyl)piperazin-1-yl)-2-oxoethyl)-1H-pyrazol-4-yl)pyrazolo[1,5-a]pyrimidine-3-carboxamide]",Ki,[1],2.51 nM
same,EC50,[2],0.0453 µM
same,Ki,[3]; [4],0.79 nM
"COC(=O)CNC1CCN(C(=O)Cn2cc(NC(=O)c3cnn4cccnc34)c(-c3cc(Cl)ccc3OC(F)F)n2)CC1 [Example 329, methyl 2-[[1-(2-[3-[5-chloro-2-(difluoromethoxy)phenyl]-4-[pyrazolo[1,5-a]pyrimidine-3-amido]-1H-pyrazol-1-yl]acetyl)piperidin-4-yl]amino]acetate formate]",Ki,[1],0.76 nM
same,EC50,[2],0.0115 µM
same,Ki,[3],0.3 nM
"CC(C)(C)OC(=O)N1CC[C@@H](O)[C@H](n2cc(NC(=O)c3cnn4cccnc34)c(-c3cc(Cl)ccc3OC(F)F)n2)C1 (single isomer, unassigned) [Example 356]",Ki,[1],2.37 nM
same,EC50,[2],0.0396 µM
same,Ki,[3]; [4],2.64 nM
"O=C(Nc1cn(C/C=C/CN2CCOCC2)nc1-c1cc(Cl)ccc1OC(F)F)c1cnn2cccnc12 [Example 394, N-[3-[5-chloro-2-(difluoromethoxy)phenyl]-1-[(2E)-4-(morpholin-4-yl)but-2-en-1-yl]-1H-pyrazol-4-yl]pyrazolo[1,5-a]pyrimidine-3-carboxamide]",Ki,[1],0.61 nM
same,EC50,[2],0.0311 µM
same,Ki,[3]; [4],0.87 nM
"O=C(Nc1cn(CC(=O)N2CCN(CC3CC3)CC2)nc1-c1cc(Cl)ccc1OC(F)F)c1cnn2cccnc12 [Example 374, N-[3-[5-chloro-2-(difluoromethoxy)phenyl]-1-[2-[4-(cyclopropylmethyl)piperazin-1-yl]-2-oxoethyl]-1H-pyrazol-4-yl]pyrazolo[1,5-a]pyrimidine-3-carboxamide]",Ki,[1],0.88 nM
same,EC50,[2],0.0295 µM
same,Ki,[3]; [4],0.45 nM
"O=C(Nc1cn(CC(=O)N2CCC(N3CCCOCC3)CC2)nc1-c1cc(Cl)ccc1OC(F)F)c1cnn2cccnc12 [Example 441, N-(1-(2-(4-(1,4-oxazepan-4-yl)piperidin-1-yl)-2-oxoethyl)-3-(5-chloro-2-(difluoromethoxy)phenyl)-1H-pyrazol-4-yl)pyrazolo[1,5-a]pyrimidine-3-carboxamide]",Ki,[1],1.48 nM
same,EC50,[2],0.0084 µM
same,Ki,[3]; [4],0.52 nM
"O=C(Nc1cn(CC(=O)N2CCC(N3CCNCC3=O)CC2)nc1-c1cc(Cl)ccc1OC(F)F)c1cnn2cccnc12 [Example 445, N-(3-(5-chloro-2-(difluoromethoxy)phenyl)-1-(2-oxo-2-(4-(2-oxopiperazin-1-yl)piperidin-1-yl)ethyl)-1H-pyrazol-4-yl)pyrazolo[1,5-a]pyrimidine-3-carboxamide]",Ki,[1],0.87 nM
same,EC50,[2],0.3 µM
same,Ki,[3]; [4],0.35 nM
